Each structure is given as a SMILES string.

The record followed here is paper PMC11078216, “Discovery of potent and selective activity-based probes (ABPs) for the deubiquitinating enzyme USP30” (RSC Chemical Biology, 2024).

This test concerns the target T1, ALDH1B1 (Homo sapiens, UniProt P30837).
T1 construct: endogenous in cells; host or cells: HEK293T
T1 sequence (P30837 18-517): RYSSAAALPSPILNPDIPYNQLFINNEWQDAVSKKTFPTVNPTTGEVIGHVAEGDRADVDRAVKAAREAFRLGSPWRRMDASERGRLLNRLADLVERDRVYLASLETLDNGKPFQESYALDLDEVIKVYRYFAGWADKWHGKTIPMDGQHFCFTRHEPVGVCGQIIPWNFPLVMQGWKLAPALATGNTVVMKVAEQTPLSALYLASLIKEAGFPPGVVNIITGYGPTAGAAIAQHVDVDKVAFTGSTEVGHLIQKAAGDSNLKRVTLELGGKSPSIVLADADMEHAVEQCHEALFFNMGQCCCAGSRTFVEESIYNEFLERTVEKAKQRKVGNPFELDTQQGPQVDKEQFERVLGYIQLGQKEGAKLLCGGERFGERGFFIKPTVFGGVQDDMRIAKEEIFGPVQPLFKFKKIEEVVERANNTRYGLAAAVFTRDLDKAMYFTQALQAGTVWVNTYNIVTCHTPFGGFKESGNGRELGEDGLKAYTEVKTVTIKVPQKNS
The experiment in a line: ABPP chemical proteomics (LC-MS/MS) in HEK293T cells. The format is cell-based. The method, then: To explore the selectivity of IMP-2587 and IMP-2586 across the whole proteome, we performed quantitative activity-based protein profiling (ABPP) in HEK293T cells following treatment with IMP-2587 or IMP-2586 (Fig. 3a). After ABP incubation, cells were lysed, and probe-labelled proteins were ligated to biotinylated capture reagents.[27] […] USP30 was outcompeted by corresponding parent inhibitors for each ABP (Fig. 5b and d and Tables S3 and S5, ESI ^†), confirming the high potency and rapid engagement of IMP-2587 and IMP-2586 in cells. […] DESI1 and DESI2 are small ubiquitin-related modifier (SUMO) proteases,[3,29–32] and IMP-2587 and IMP-2586 may offer a starting point for future development of DESI ABPs. […]
d) Live cell probe incubation, lysate click chemistry and precipitation 6-well HEK293T cells were incubated with media containing compounds ABP 2 and ABP 4 at indicated concentrations for 1 h at 37 °C. The cells were washed with PBS and lysed with lysis buffer (50 μL (1% (v/v) Triton X-100, 0.1% (w/v) sodium dodecyl sulfate (SDS), EDTA-free complete protease inhibitor cocktail (1×, Roche) in PBS on ice for 10 min. The lysates were scraped and transferred to corresponding Lo-Bind Eppendorfs. Each lysate was sonicated for 1 minute, and the samples centrifuges at 5,000 x g at 4 °C for 5 minutes to pellet insoluble cellular debris. The supernatant was collected, and protein concentration was determined using the DC Protein Assay (Bio-Rad) as per manufacturer’s instructions, and normalised to lowest concentrated sample (e.g. 1 mg/mL, using lysis buffer). The following “click mixture” was prepared separately, preparing 6 μL for every 100 μL of […]
Capture reagent (AzRB/AzT for ABP 2, YnT/YnB for ABP 4 10 mM in DMSO, 1 vol; final concentration […]
CuSO4 (50 mM in water, 2 vol; final concentration in reaction 1 mM)
TCEP (50 mM in water, 2 vol; final concentration in reaction 1 mM)
TBTA (10 mM in DMSO, 1 vol; final concentration in reaction 100 µM)
The click mixture was vortexed and incubated at room temperature for 2 min before 6 μL of the mixture was added to every 100 μL of lysate. The reaction mixtures were shaken at room temperature for 1 h before being quenched with EDTA (500 mM in H2O) to a final concentration of 10 mM.
Proteins were precipitated by adding H2O (1 vol), MeOH (2 vol) and CHCl3 (0.5 vol), vortexing briefly then centrifuging at 17,000 × g for 5 min. The top H2O/MeOH layer was discarded and the middle layer of protein pellet and lower CHCl3 layer retained. The suspension was washed with MeOH (300 μL), and sonicated to break up the pellet. The proteins were pelleted by centrifugation at 10,000–17000 × g for 5–10 min or until a compact pellet was formed. The protein pellet was washed once more with MeOH (1 mL). The pellet was resuspended by sonicating and completely dissolving in 1% (w/v) SDS in PBS (to 5 mg/mL protein) before being made up to 1 mg/mL protein with PBS. […]
f) Neutravidin biotin enrichment (Affinity pull-down)
Click chemistry and precipitation steps were carried out as described in section 3.2.d, on at least 400ug of protein per sample. The pellet was resuspended by sonicating and completely dissolving in 1% (w/v) SDS in HEPES 50 mM pH 8.0, before being made up to 1 mg/mL protein with HEPES 50 mM pH 8.0 to […]
achieve a final concentration of 0.2% SDS. 20uL of each samples was collected as TL (Total lysate) samples. Pull down of biotinylated proteins was achieved by incubating samples with pre-equilibrated (3x 1 mL washes with 0.2% (w/v) SDS in HEPES 50 mM pH 8 buffer) Pierce™ NeutrAvidin™ Agarose beads for 3 hours at room temperature. NeutrAvidin™ Agarose beads were used in ratio of 1 μL bead resin per 10ug of protein sample. The beads were subsequently washed by moderate shaking for 10 seconds then briefly pelleting by table-top centrifuge then vacuum aspirating the supernatant with fine-end pipette tips (to not disturb the agarose) after collecting 20 µL supernatant as SN (supernatant […]
) samples. […]

In the case of `N#CN1CC[C@@H](NC(=O)c2cc(-c3ccccc3Oc3ccc(N=[N+]=[N-])cc3)n[nH]2)C1` [IMP-2586], the “Difference (log2 fold change of enrichment)” value (IMP-2586 labelling vs DMSO, 30 nM, 10 min, HEK293T (Table S4, Fig.5c)) is 2.25.
As for `C#Cc1cccc(-c2cc(NC(=O)CC3CCN(C#N)C3)on2)c1` (stereo not shown) [IMP-2587], the “Difference (log2 fold change of enrichment)” value (IMP-2587 labelling vs DMSO, 30 nM, 10 min, HEK293T (Table S2, Fig.5a)) was 3.53.
For `N#CN1CC[C@H](CC(=O)Nc2cc(-c3cccc(Cl)c3)no2)C1` [compound 1, reference compound], the “Difference (log2 fold change of enrichment)” value (compound 1 out-competition with IMP-2587 labelling, HEK293T (Table S3, Fig.5b)) is recorded as -3.81.
Take `N#CN1CC[C@@H](NC(=O)c2cc(-c3ccccc3Oc3ccccc3)n[nH]2)C1` [compound 3, reference compound]: the “Difference (log2 fold change of enrichment)” value (compound 3 out-competition with IMP-2586 labelling, HEK293T (Table S5, Fig.5d)) is on record as -1.78.
